Laboratory results published in US4847254A, “CNS affecting 5-oxy-3-aminomethyl-dihydro-benzofurans and benzothiophenes” (H. Lundbeck A/S, priority 1987, dated 1989).

Experiments:
[1] = test system: postsynaptic DA-receptors; assay: Reversal of locomotor depression (hypomotility) in reserpine plus alpha-methyl-p-tyrosine pretreated rats; assay type: in vivo, rat (Wistar)
[2] = test system: DA-receptor; assay: Contralateral circling in rats with unilateral 6-hydroxy-DA (6-OHDA) lesions; for 6-OHDA Contr. Circle. rats (sc) Duration: test concentration or dose not given here; assay type: in vivo, rat (Wistar); details: 6-OHDA-lesioned rats; for 6-OHDA Contr. Circle. rats (sc) ED50: doses calculated as the free amine; for 6-OHDA Contr. Circle. rats (sc) Duration: duration given instead of ED50
Protocol: Furthermore, the potency of the drug to induce contralateral circling behaviour in 6-hydroxy-DA-lesioned rats was determined. The specificity of this receptor resembles that of the […] DA receptors mediating motility inhibition.
The experiments were made according to published methods, using rats of the Wistar strain.
Therefore, also the ability of a test compound to induce contralateral circling in rats with unilateral 6-hydroxy-DA lesions was evaluated (loc cit.).

[3] = test system: DA-autoreceptors; assay: Inhibition of spontaneous locomotor activity (motility inhibition) in rats; assay type: in vivo, rat (Wistar); details: doses calculated as the free amine
[4] = test system: presynaptic DA-receptors (DA-autoreceptors); details: cited from earlier work

Row | SMILES | 6-OHDA Contr. Circle. rats (sc) ED50 [2] | Motility Inh. rats (sc) ED50 [3] | Reserpin α-Mt Rev. rats (sc) ED50 [1] | also measured
1 | CCCN(CCC)CC1CCc2ccc(O)cc21 (centres unmarked) [Lu 21-051, N,N-dipropyl-6-hydroxy-1-indanmethylamine] | 0.35 µmol/kg | 0.45 µmol/kg | – | Reserpin α-Mt Rev. rats (sc) % at 5 μmol/kg [1]: 44%
2 | CCCN(CCC)CC1CCc2ccc(OC(=O)c3ccccc3Cl)cc21 (centres unmarked) [Lu 24-031, 6-(2-chlorobenzoyloxy)-N,N-dipropyl-1-indanmethylamine] | – | – | – | 6-OHDA Contr. Circle. rats (sc) Duration [2]: 4 h
3 | CN1CCc2cccc3c2[C@H]1Cc1ccc(O)c(O)c1-3 [Apomorphine, apomorphine, reference compound] | 0.06 µmol/kg | 0.64 µmol/kg | 0.27 µmol/kg | clinical success at low doses ([4]; low doses, patients with schizophrenia and tardive dyskinesias): used with some success; selectivity of action at DA autoreceptors vs postsynaptic DA receptors ([4]; postsynaptic DA receptors stimulated by slightly higher doses): no selective action at DA autoreceptors
4 | CCCN(CCC)CC1CCc2ccc(OC(=O)c3c(F)cccc3F)cc21 (centres unmarked) [Lu 24-029, 6-(2,6-Difluorbenzoyloxy)-N,N-dipropyl-1-indanmethylamine] | – | – | – | 6-OHDA Contr. Circle. rats (sc) Duration [2]: 4 h
5 | CCN(CC)CC1COc2ccc(O)cc21 (centres unmarked) [Lu 24-088, 5-Hydroxy-2,3-dihydro-N,N-diethyl-3-benzofuranmethylamine] | 1.2 µmol/kg | 1.7 µmol/kg | – | Reserpin α-Mt Rev. rats (sc) % at 5 μmol/kg [1]: 13%
6 | CCCN(C)CC1CCc2ccc(O)cc21 (centres unmarked) [Lu 25-009, 6-Hydroxy-N-methyl-N-propyl-1-indanmethylamine] | 0.82 µmol/kg | 0.65 µmol/kg | 66 µmol/kg | –
7 | CCCN(CCC)CC1CSc2ccc(O)cc21 (centres unmarked) [Lu 24-100, 5-Hydroxy-2,3-dihydroxy-N,N-dipropyl-3-benzothiophenmethylamine] | 4.6 µmol/kg | 3.0 µmol/kg | 20 µmol/kg | –
8 | CCN(CC)CC1CCc2ccc(O)cc21 (centres unmarked) [Lu 21-096, N,N-diethyl-6-hydroxy-1-indanmethylamine] | 0.19 µmol/kg | 1.0 µmol/kg | – | Reserpin α-Mt Rev. rats (sc) % at 5 μmol/kg [1]: 50%
9 | CCCN(CCc1ccccc1)CC1CCc2ccc(O)cc21 (centres unmarked) [Lu 21-113, 6-Hydroxy-N-propyl-N-(2-phenylethyl)-1-indanmethylamine] | 0.12 µmol/kg | 0.51 µmol/kg | – | Reserpin α-Mt Rev. rats (sc) % at 5 μmol/kg [1]: 63%
10 | CCCN(CCC)CC1CCc2ccc(O)cc21 (single isomer, unassigned; (-)) [Lu 22-049, (-)-N,N-dipropyl-6-hydroxy-1-indanmethylamine] | 0.18 µmol/kg | 0.26 µmol/kg | 4.5 µmol/kg | –
11 | CCCN(CCC)CC1COc2ccc(O)cc21 (single isomer, unassigned; (+)) [Lu 24-122, (+)-5-hydroxy-2,3-dihydro-N,N-dipropyl-3-benzofuranmethylamine] | 0.16 µmol/kg | 0.81 µmol/kg | – | –
12 | CCN(CC)CC1CCc2ccc(OC(=O)Nc3ccc(C(C)C)cc3)cc21 (centres unmarked) [Lu 25-177, 6-(4-isopropylphenylaminocarbonyloxy)-N,N-diethyl-1-indanmethylamine] | – | – | – | 6-OHDA Contr. Circle. rats (sc) Duration [2]: > 6 h
13 | CCCN(C)CC1COc2ccc(O)cc21 (single isomer, unassigned; (-)) [Lu 25-021, (-)-5-hydroxy-2,3-dihydro-N-methyl-N-propyl-3-benzofuranmethylamine] | 5.2 µmol/kg | 5.4 µmol/kg | 290 µmol/kg | –
14 | CCN(CC)CC1CCc2ccc(OC(=O)C(C)(C)C)cc21 (centres unmarked) [Lu 23-020, 6-pivaloyloxy-N,N-diethyl-1-indanmethylamine] | 0.33 µmol/kg | 0.84 µmol/kg | – | –
15 | CCCN(CCC)CC1CCc2ccc(OC(=O)c3ccccc3OC(C)=O)cc21 (centres unmarked) [Lu 24-032, 6-(2-acetyloxybenzoyloxy)-N,N-dipropyl-1-indanmethylamine] | – | – | – | 6-OHDA Contr. Circle. rats (sc) Duration [2]: 4 h
16 | CCN(CC)CC1CCc2ccc(O)cc21 (single isomer, unassigned; (+)) [Lu 22-106, (+) N,N-diethyl-6-hydroxy-1-indanmethylamine] | 0.36 µmol/kg | 1.1 µmol/kg | 14 µmol/kg | –
17 | CCCN(CCO)CC1COc2ccc(O)cc21 (centres unmarked) [Lu 24-102, 5-Hydroxy-2,3-dihydro-N-(2-hydroxyethyl)-N-propyl-3-benzofuranmethylamine] | 2.1 µmol/kg | 5.4 µmol/kg | 19 µmol/kg | –
18 | CCCN(CCC)CC1COc2ccc(O)cc21 (single isomer, unassigned; (-)) [Lu 24-121, (-)-5-hydroxy-2,3-dihydro-N,N-dipropyl-3-benzofuranmethylamine] | 1.7 µmol/kg | 5.4 µmol/kg | 86 µmol/kg | –

Row | SMILES | 6-OHDA Contr. Circle. rats (sc) ED50 [2] | Motility Inh. rats (sc) ED50 [3] | Reserpin α-Mt Rev. rats (sc) ED50 [1] | also measured
19 | CCCCN(CCCC)CC1CCc2ccc(O)cc21 (centres unmarked) [Lu 22-028, N,N-Dibutyl-6-hydroxy-1-indanmethylamine] | > 14 µmol/kg | 13 µmol/kg | – | –
20 | CCCN(CCC)CC1COc2ccc(OC(=O)c3ccccc3C)cc21 (centres unmarked) [Lu 24-074, 5-(2-Methylbenzoyloxy)-2,3-dihydro-N,N-dipropyl-3-benzofuranmethylamine] | – | – | – | 6-OHDA Contr. Circle. rats (sc) Duration [2]: 15 h
21 | CCCN(C)CC1COc2ccc(O)cc21 (centres unmarked) [Lu 24-103, 5-Hydroxy-2,3-dihydro-N-methyl-N-propyl-3-benzofuranmethylamine] | 1.2 µmol/kg | 4.5 µmol/kg | 290 µmol/kg | –
22 | CCCN(CCC)CC1COc2ccc(OC(=O)c3ccccc3N)cc21 (centres unmarked) [Lu 25-165, 5-(2-aminobenzoyloxy)-2,3-dihydro-N,N-dipropyl-3-benzofuranmethylamine] | – | – | – | 6-OHDA Contr. Circle. rats (sc) Duration [2]: > 6 h
23 | CCCN(CCC)CC1CCc2ccc(O)cc21 (single isomer, unassigned; (-)) [Lu 22-050, (-)-N,N-dipropyl-6-hydroxy-1-indanmethylamine] | 0.45 µmol/kg | 1.3 µmol/kg | 60 µmol/kg | –
24 | CCCN(CCc1cccs1)CC1COc2ccc(O)cc21 (centres unmarked) [Lu 24-155, 5-Hydroxy-2,3-dihydro-N-propyl-N-(2-thienyl-2-ethyl)-3-benzofuranmethylamine] | 1.2 µmol/kg | 7.0 µmol/kg | 28 µmol/kg | –
25 | CCCN(CCC)CC1COc2ccc(OC(=O)C(C)(C)C)cc21 (centres unmarked) [Lu 24-042, 5-Pivaloyloxy-2,3-dihydro-N,N-dipropyl-3-benzofuranmethylamine] | 0.40 µmol/kg | – | – | –
26 | CCCN(CCC)CC1CCc2ccc(OC)cc21 (centres unmarked) [Lu 21-097, N,N-dipropyl-6-methoxy-1-indanmethylamine] | > 14 µmol/kg | > 14 µmol/kg | – | –
27 | CCCN(CCC)CC1COc2ccc(OC(=O)NC(C)C)cc21 (centres unmarked) [Lu 25-158, 5-isopropylaminocarbonyloxy-2,3-dihydro-N,N-dipropyl-3-benzofuranmethylamine] | – | – | – | 6-OHDA Contr. Circle. rats (sc) Duration [2]: 4 h
28 | CCCN(C)CC1COc2ccc(O)cc21 (single isomer, unassigned; (+)) [Lu 25-020, (+)-5-hydroxy-2,3-dihydro-N-methyl-N-propyl-3-benzofuranmethylamine] | 0.95 µmol/kg | 4.1 µmol/kg | 65 µmol/kg | –
29 | CCCN(CCC)CC1COc2ccc(O)cc21 (centres unmarked) [Lu 23-130, 5-Hydroxy-2,3-dihydro-N,N-dipropyl-3-benzofuranmethylamine] | 0.35 µmol/kg | 0.5 to 2 µmol/kg | 3.4 µmol/kg | –
30 | CCCN(CCC)CC1CCc2ccc(OC(=O)c3ccccc3F)cc21 (centres unmarked) [Lu 24-033, 6-(2-fluorbenzoyloxy)-N,N-dipropyl-1-indanmethylamine] | – | – | – | 6-OHDA Contr. Circle. rats (sc) Duration [2]: 4 h
31 | CCCNCC1CCc2ccc(O)cc21 (centres unmarked) [Lu 21-138, 6-Hydroxy-N-propyl-1-indanmethylamine] | 10 µmol/kg | 19 µmol/kg | – | –
32 | CCN(CC)CC1CCc2ccc(O)cc21 (single isomer, unassigned; (-)) [Lu 22-105, (-) N,N-diethyl-6-hydroxy-1-indanmethylamine] | 1.2 µmol/kg | 0.87 µmol/kg | 120 µmol/kg | –
33 | CCCN(CCc1ccccc1)CC1COc2ccc(O)cc21 (centres unmarked) [Lu 24-084, 5-Hydroxy-2,3-dihydro-N-(2-phenylethyl)-N-propyl-3-benzofuranmethylamine] | 0.94 µmol/kg | 1.9 µmol/kg | 11 µmol/kg | –
34 | CN(C)CC1CCc2ccc(O)cc21 (centres unmarked) [Lu 21-112, N,N-dimethyl-6-hydroxy-1-indanmethylamine] | 0.95 µmol/kg | 5.7 µmol/kg | 12 µmol/kg | –
35 | CCCN(CCC)CC1CCc2ccc(OC(=O)c3ccccc3C)cc21 (centres unmarked) [Lu 24-028] | – | – | – | 6-OHDA Contr. Circle. rats (sc) Duration [2]: 18 h
36 | CCCN(CCC)CC1CCc2ccc(OC(=O)c3ccccc3OC)cc21 (centres unmarked) [Lu 24-030, 6-(2-methoxybenzoyloxy)-N,N-dipropyl-1-indanmethylamine] | – | – | – | 6-OHDA Contr. Circle. rats (sc) Duration [2]: 4 h
